Assay results as given in patent US12011619B2, “Low intensity focused ultrasound for treating cancer and metastasis” (priority 2015, dated 2024).

How the values were obtained:
[1] = tested on: RM1 tumor (murine prostate cancer cell line); assay: RM1 tumor growth in C57Bl/6 mice; type: in vivo, mouse; details: for tumor volume: untreated tumor 1879±98.65 mm^3
Procedure: (§1) This protocol yielded an approximate in situ spatial-peak temporal-average acoustic intensity of 270 W/cm^2, resulting in estimated average intra-tumoral temperature elevation of 3.2° C. Post-treatment, there were no signs of normal tissue toxicity such as alopecia, thermal damage, or skin wounds. […] Control mice were injected with equal volume of the vehicle DMSO, which was used to solubilize 17AAG.
(§2) C57Bl/6 and BalbC nu/nu mice were injected subcutaneously with 1×10^5 RM-1 (murine prostate cancer cell line) and 1×10^6 PC3 (human prostate cancer cell line) cells on the flank, respectively. Approximately 10 days later, the tumor became palpable (3-5 mm in diameter), whereupon LOFU treatment was initiated. […] Palpable tumors were treated with LOFU every 3-4 days for five fractions administered over two weeks. Animals received 17AAG three times a week during this time. Tumor volume measurements were performed twice weekly using Vernier calipers along with simultaneous physical assessment of signs of systemic toxicity (malaise and diarrhea).

CHOP transcript = assay: Real Time-PCR analysis of CHOP mRNA in tumors; type: in vivo, mouse; details: RM1 tumors
From the text: Although phosphorylated eIF2α decreases the translation of most cellular proteins, including pro-survival and anti-apoptotic proteins, it increases the translation of a transcription factor, ATF4 that is responsible for inducing the transcription of pro-apoptotic genes, such as, CCAAT/enhancer-binding protein homologous protein (CHOP), thereby preparing the cell for programmed cell death in case the misfolded proteins are not repaired and ER stress persists.
Real Time PCR analysis of UPR target genes 24 hr after LOFU treatment the RM1 tumor cells were lysed using RLT buffer mixed with 1% betamercaptoethanol from RNeasy Mini Kit (Qiagen, Valencia, CA, USA).
Qiagen's protocol for the RNeasy Mini Kit with on-column DNA digestion was used to isolate RNA from the tumor lysates. The RNA samples were stored at −80° C., prior to further use. Isolated RNA was subjected to cDNA synthesis using the SuperScript™ First-Strand Synthesis System (Invitrogen, Grand Island, NY, USA). The splicing of XBP1 RNA was detected using the following primer pair 5′-[…]-3′ (SEQ ID NO:19) and 5′-[…]-3′ (SEQ ID NO:20) (Fisher Scientific, Pittsburgh, PA, USA). […]
Primers used for real time PCR included GRP78 5′[…]3′ (SEQ ID NO:21) and 5′[…]3′ (SEQ ID NO:22); EDEM 5′ […] […] Data was analyzed by web based PCR array data analysis software from SA Biosciences.

[2] = Toxicity / survival of 17AAG dosing in mice (Kaplan Meier, signs of toxicity); type: in vivo
Procedure: as §1
Thus, these dose levels were selected for the current study. The goal was to combine two therapies that are nontoxic, albeit subtherapeutic, and examine whether the combination can be therapeutic. […] To detect the level of ER stress, the expression levels of ER chaperones, ERp44, ERp57, and ERp72 were quantitated among different treatment groups. ERp44 is responsible for oxidative protein folding. ERp57 is an ER resident thiol disulfide oxidoreductase while Erp72 is a disulfide isomerase. All these proteins participate in the protein folding machinery of the ER.
as §2
Mice survival/mortality in different treatment groups was analyzed by Kaplan-Meier as a function of radiation dose using Sigma-Plot and GraphPad Prism (version 4.0 for OS X, San Diego, CA, USA) software.

With `C=CCNC1=C2C[C@@H](C)C[C@H](OC)[C@H](O)[C@@H](C)/C=C(\C)[C@H](OC(N)=O)[C@@H](OC)/C=C\C=C(/C)C(=O)NC(=CC1=O)C2=O` [17AAG, 17-N-allylamino-17-demethoxygeldanamycinan] the tumor volume ([1]; 17AAG 50 mg/kg b.w. i.p. three times a week, C57Bl/6 mice) was 964 mm^3, the tumor volume ([1]; 17AAG 75 mg/kg b.w. i.p. three times a week, C57Bl/6 mice) was 485±24.25 mm^3 and the “interval within which all the animals achieved tumor size 2000 mm^3” value ([1]; RM1 tumors, 17AAG 25 mg/kg alone) was 26 to 30 days. The “average estimated tumor growth slower compared to control group” value ([1]; RM1 tumors, 17AAG 25 mg/kg, C57Bl/6 mice) was 9%, the “CHOP transcript levels, induction compared to untreated controls” value (CHOP transcript) was 14.8±2 fold and the “death of mice (Kaplan Meier survival analysis)” value ([2]; 75 mg/kg of body weight, after 21 days of treatment, C57Bl/6 mice) was 50%. For the same molecule, the “low dose found to be nontoxic” value ([2]; Balb/c nude mice) was 14 mg/kg, the “low dose found to be nontoxic” value ([2]; C57Bl/6 mice) was 25 mg/kg and the “normal tissue toxic effect” value ([2]; low dose 17AAG 25 mg/kg body weight, C57Bl/6 mice) was “did not show any normal tissue toxic effect”.
